Values of other authors, collected in patent publication US20050203014A1, “Composition and methods for modulating CNS activity” (Curis, Inc., priority 2003, published 2005).

Assays:
[1] = system: knock-out mice lacking 5-HT1A receptors; details: 5-HT1A receptor knock-out mice
[2] = system: dentate gyrus of the rat hippocampus

SMILES	response to antidepressant [1]	neurogenesis in the dentate gyrus [2]
CNCCCN1c2ccccc2CCc2ccccc21 [desipramine]	respond	
CNCCC(Oc1ccc(C(F)(F)F)cc1)c1ccccc1 (centres unmarked) [fluoxetine]	non-responsive	increase neurogenesis
CN(C)CCCN1c2ccccc2CCc2ccccc21 [imipramine]	respond	increase neurogenesis
